Assay results reported in ChEMBL document CHEMBL1201862, “PubChem BioAssay data set” (2004).
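Test compounds were applied to cells in 96-well plates for 48 hours at 5 doses. GI50: concentration for 50% inhibition of growth.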 Activity calls are given as the source filed them. No stated cut-off is given here; in the data, active = GI50 up to about 1.1 µM and inactive = higher.

How the values were obtained:
Test in all cases: growth of human tumour cells (NCI), 48 h
[1] = test system: T47D
[2] = test system: LOX IMVI
[3] = test system: 786-0
[4] = test system: IGROV-1
[5] = test system: SR
[6] = test system: NCI-H226
[7] = test system: TK-10
[8] = test system: CCRF-CEM
[9] = test system: EKVX
[10] = test system: NCI/ADR-RES
[11] = test system: DU-145
[12] = test system: PC-3
[13] = test system: A549
[14] = test system: CAKI-1
[15] = test system: HL-60
[16] = test system: NCI-H522
[17] = test system: BT-549
[18] = test system: OVCAR-4
[19] = test system: NCI-H23
[20] = test system: MDA-N

| SMILES | GI50 [1] | GI50 [2] | GI50 [3] | GI50 [4] | GI50 [5] | GI50 [6] | GI50 [7] | GI50 [8] | GI50 [9] | GI50 [10] | GI50 [11] | GI50 [12] | GI50 [13] | GI50 [14] | GI50 [15] | GI50 [16] | GI50 [17] | GI50 [18] | GI50 [19] | GI50 [20] |
| --- | --- | --- | --- | --- | --- | --- | --- | --- | --- | --- | --- | --- | --- | --- | --- | --- | --- | --- | --- | --- |
| Cc1nc(N)sc1/N=N/c1cc(Cl)c([N+](=O)[O-])cc1Cl | 35.9 µM (inactive) | 16.9 µM (inactive) | 19.7 µM (inactive) | 20.1 µM (inactive) | 13.6 µM (inactive) | 14 µM (inactive) | 21.4 µM (inactive) | 11.8 µM (inactive) | 13 µM (inactive) | 20.6 µM (inactive) | 13.6 µM (inactive) | 18.7 µM (inactive) | 12.8 µM (inactive) | 27.4 µM (inactive) | 22.9 µM (inactive) | 15.5 µM (inactive) |  |  |  |  |
| CC1(C)CC(=O)c2c(nc(SSc3nc4c(c(-c5ccccc5)c3C#N)C(=O)CC(C)(C)C4)c(C#N)c2-c2ccccc2)C1 | > 10 µM (inactive) | > 10 µM (inactive) | > 10 µM (inactive) | > 10 µM (inactive) |  | > 10 µM (inactive) | > 10 µM (inactive) | > 10 µM (inactive) | > 10 µM (inactive) | > 10 µM (inactive) | > 10 µM (inactive) | > 10 µM (inactive) | > 10 µM (inactive) | > 10 µM (inactive) | > 10 µM (inactive) | > 10 µM (inactive) | > 10 µM (inactive) | > 10 µM (inactive) | > 10 µM (inactive) |  |
| N#C/C(C(=O)Nc1ccccc1)=C(/N)N1CCCC1 | 35.2 µM (inactive) | > 100 µM (inactive) | > 100 µM (inactive) | > 100 µM (inactive) | > 100 µM (inactive) | > 100 µM (inactive) | > 100 µM (inactive) | > 100 µM (inactive) | 72.3 µM (inactive) | > 100 µM (inactive) | > 100 µM (inactive) | > 100 µM (inactive) | > 100 µM (inactive) | > 100 µM (inactive) | > 100 µM (inactive) | > 100 µM (inactive) |  | > 100 µM (inactive) | > 100 µM (inactive) | > 100 µM (inactive) |
| C=CCCCN(C(=O)c1ccccc1)c1ccc(C(=O)OC)o1 | 34 µM (inactive) | > 100 µM (inactive) | > 100 µM (inactive) | > 100 µM (inactive) |  | > 100 µM (inactive) | > 100 µM (inactive) |  | > 100 µM (inactive) | 52.5 µM (inactive) | > 100 µM (inactive) | 83.8 µM (inactive) | > 100 µM (inactive) | > 100 µM (inactive) | 19.3 µM (inactive) | 64.3 µM (inactive) |  | > 100 µM (inactive) | > 100 µM (inactive) | 51.9 µM (inactive) |
| O=[N+]([O-])c1ccc2[nH]c(=S)[nH]c(=S)c2c1 | > 100 µM (inactive) | > 100 µM (inactive) | > 100 µM (inactive) | > 100 µM (inactive) | > 100 µM (inactive) | > 100 µM (inactive) | > 100 µM (inactive) | > 100 µM (inactive) | > 100 µM (inactive) | > 100 µM (inactive) | > 100 µM (inactive) | > 100 µM (inactive) | > 100 µM (inactive) | > 100 µM (inactive) | > 100 µM (inactive) | > 100 µM (inactive) |  | > 100 µM (inactive) | > 100 µM (inactive) | > 100 µM (inactive) |
| Cc1c2c(OCCCCN3CCN(c4ncccn4)CC3)nn(C)c(=O)c2c(C)n1-c1ccccc1 | 17.9 µM (inactive) | 20.4 µM (inactive) | 18.1 µM (inactive) | 17.8 µM (inactive) |  | 20.7 µM (inactive) | 19 µM (inactive) | 31.1 µM (inactive) | 19.1 µM (inactive) | 21.3 µM (inactive) | 17.1 µM (inactive) | 20.4 µM (inactive) | 20.7 µM (inactive) | 16.9 µM (inactive) | 21.1 µM (inactive) | 18.4 µM (inactive) | 19.3 µM (inactive) | 19.5 µM (inactive) | 19.1 µM (inactive) |  |
| O=C1/C(=C/c2ccccc2O)N=C(c2ccccc2)N1C1Nc2cc3c(cc2S1)NC(N1C(=O)/C(=C/c2ccccc2O)N=C1c1ccccc1)S3 (configuration not stated) | 8.05 µM (inactive) | 42.2 µM (inactive) | 25.4 µM (inactive) | 14.2 µM (inactive) | 18.3 µM (inactive) | > 100 µM (inactive) | 25.4 µM (inactive) | 39.7 µM (inactive) | 46.7 µM (inactive) | 10.5 µM (inactive) | 42.8 µM (inactive) | 34.4 µM (inactive) |  | 56.5 µM (inactive) | 28.9 µM (inactive) | 35.2 µM (inactive) |  | 60.5 µM (inactive) | 31.9 µM (inactive) | 14 µM (inactive) |
| CN(CCCNC(=O)c1nn(-c2ccc(Cl)cc2Cl)c2c1ccc1ccccc12)CCCNC(=O)c1nn(-c2ccc(Cl)cc2Cl)c2c1ccc1ccccc12 | 1.81 µM (inactive) | 1.69 µM (inactive) | 1.54 µM (inactive) | 1.74 µM (inactive) | 0.278 µM (active) | 2.25 µM (inactive) | 1.89 µM (inactive) | 1.92 µM (inactive) | 1.69 µM (inactive) | 1.59 µM (inactive) | 1.77 µM (inactive) | 1.68 µM (inactive) | 1.63 µM (inactive) | 1.58 µM (inactive) | 0.322 µM (active) | 1.46 µM (inactive) |  | 1.68 µM (inactive) | 1.81 µM (inactive) | 1.73 µM (inactive) |
| O=C(CCCN1CC=C(n2c(=O)[nH]c3ccccc32)CC1)c1cccs1 | > 100 µM (inactive) | > 100 µM (inactive) | > 100 µM (inactive) | > 100 µM (inactive) | > 100 µM (inactive) | > 100 µM (inactive) | 67.5 µM (inactive) | > 100 µM (inactive) | > 100 µM (inactive) | > 100 µM (inactive) | > 100 µM (inactive) | 93.3 µM (inactive) | > 100 µM (inactive) | > 100 µM (inactive) | > 100 µM (inactive) | > 100 µM (inactive) |  | > 100 µM (inactive) | > 100 µM (inactive) | > 100 µM (inactive) |
| CC1CN=C(Nc2ccc(S(N)(=O)=O)cc2)S1 (configuration not stated) | 60.1 µM (inactive) | > 10 µM (inactive) | > 100 µM (inactive) | > 100 µM (inactive) | > 100 µM (inactive) |  | > 100 µM (inactive) | > 100 µM (inactive) | > 100 µM (inactive) | > 100 µM (inactive) | > 100 µM (inactive) | > 10 µM (inactive) | > 100 µM (inactive) | > 100 µM (inactive) | > 100 µM (inactive) |  |  | > 100 µM (inactive) | > 100 µM (inactive) | > 10 µM (inactive) |
| Cc1ccc(N(C(=O)Nc2ccc(F)c(Cl)c2)C2=NCC(C)S2)cc1 (configuration not stated) | 33 µM (inactive) | 30.2 µM (inactive) | 57.8 µM (inactive) | > 100 µM (inactive) | 40.2 µM (inactive) |  | 29.7 µM (inactive) | 42.2 µM (inactive) | 49.9 µM (inactive) | 22.6 µM (inactive) | > 100 µM (inactive) | 46.7 µM (inactive) | 57.3 µM (inactive) | 22.2 µM (inactive) | 23.8 µM (inactive) |  |  | 38.7 µM (inactive) | 28.6 µM (inactive) | 46.7 µM (inactive) |
| Cc1nc2c3c(ncn2n1)Oc1c(c(-c2ccccc2)nn1-c1ccccc1)C3c1ccc(Cl)cc1 (configuration not stated) | > 100 µM (inactive) | > 100 µM (inactive) | 39 µM (inactive) | > 100 µM (inactive) | 45.1 µM (inactive) | > 100 µM (inactive) | 39.4 µM (inactive) | > 10 µM (inactive) | > 100 µM (inactive) | > 100 µM (inactive) | > 100 µM (inactive) | > 100 µM (inactive) | > 100 µM (inactive) | > 100 µM (inactive) | > 10 µM (inactive) |  |  | 22.1 µM (inactive) | > 100 µM (inactive) | > 100 µM (inactive) |
| COC1OC(Cn2cc([N+](=O)[O-])nc2C)C(O)C(O)C1O (configuration not stated) | > 100 µM (inactive) |  | > 100 µM (inactive) | > 100 µM (inactive) | > 100 µM (inactive) |  |  | > 100 µM (inactive) | > 100 µM (inactive) | > 100 µM (inactive) | > 100 µM (inactive) | > 100 µM (inactive) | > 100 µM (inactive) | > 100 µM (inactive) |  | > 100 µM (inactive) |  | > 100 µM (inactive) | > 100 µM (inactive) | > 100 µM (inactive) |
| CCOC(CN(C)C(=O)Nc1cccc2ccccc12)OCC | > 10 µM (inactive) | > 10 µM (inactive) | > 10 µM (inactive) | > 10 µM (inactive) | > 10 µM (inactive) | > 10 µM (inactive) | > 10 µM (inactive) | > 10 µM (inactive) | > 10 µM (inactive) | > 10 µM (inactive) | > 10 µM (inactive) | > 10 µM (inactive) | > 10 µM (inactive) | > 10 µM (inactive) | > 10 µM (inactive) | > 10 µM (inactive) |  | > 10 µM (inactive) | > 10 µM (inactive) | > 10 µM (inactive) |
| O/N=C1\CCc2nonc2\C1=N/Nc1ccccc1 | 57.3 µM (inactive) | > 100 µM (inactive) | > 100 µM (inactive) | > 100 µM (inactive) | > 100 µM (inactive) | 35.6 µM (inactive) | > 100 µM (inactive) | > 100 µM (inactive) | 39.9 µM (inactive) | > 100 µM (inactive) | > 100 µM (inactive) | > 100 µM (inactive) | > 100 µM (inactive) | > 100 µM (inactive) | > 100 µM (inactive) |  |  | > 100 µM (inactive) | > 100 µM (inactive) | > 100 µM (inactive) |
